Measured values from ChEMBL document CHEMBL3885881, “DrugMatrix”.

Species: Rattus norvegicus
Assay: DrugMatrix - Regimen: Daily Repeat
Assay type: toxicity, organism-based, Sprague-Dawley
Set-up: regimen Daily Repeat, gender Male, age 6-8 weeks
Details: in vivo, po, route oral GAVAGE, vehicle .5 % CMC; for ABSOLUTE BASOPHIL / ABSOLUTE EOSINOPHIL / ABSOLUTE LYMPHOCYTE / ABSOLUTE MONOCYTE / ABSOLUTE SEGMENTED NEUTROPHIL / BASOPHIL / EOSINOPHIL / ERYTHROCYTE COUNT / HEMATOCRIT / HEMOGLOBIN / LEUKOCYTE COUNT / LYMPHOCYTE / MEAN CORPUSCULAR HEMOGLOBIN / MEAN CORPUSCULAR HEMOGLOBIN CONCENTRATION / MEAN CORPUSCULAR VOLUME / MONOCYTE / NEUTROPHIL / NUCLEATED RED BLOOD CELLS / PLATELET COUNT: tissue Blood; for ALANINE AMINOTRANSFERASE / ALBUMIN / ALKALINE PHOSPHATASE / ASPARTATE AMINOTRANSFERASE / BLOOD UREA NITROGEN / CARBON DIOXIDE / CHLORIDE / CHOLESTEROL / CREATINE PHOSPHOKINASE / CREATININE / GLUCOSE / LACTATE DEHYDROGENASE / LIPASE / PHOSPHORUS / POTASSIUM / SODIUM / TOTAL BILIRUBIN / TOTAL PROTEIN / URIC ACID: tissue Plasma
[1] = 0 mg/kg, 72 h, dose level Control, time 3 day
[2] = 0 mg/kg, 120 h, dose level Control, time 5 day
[3] = 10 mg/kg, 72 h, dose level Low, time 3 day

COc1c(C)c2c(c(O)c1C/C=C(\C)CCC(=O)OCCN1CCOCC1)C(=O)OC2 [MYCOPHENOLATE MOFETIL]
ABSOLUTE BASOPHIL [1]: 0 CELLS/uL | ABSOLUTE EOSINOPHIL [1]: 0 CELLS/uL | ABSOLUTE LYMPHOCYTE [1]: 12191.17 CELLS/uL | ABSOLUTE MONOCYTE [1]: 183.17 CELLS/uL | ABSOLUTE SEGMENTED NEUTROPHIL [1]: 1192.33 CELLS/uL | BASOPHIL [1]: 0% | EOSINOPHIL [1]: 0% | ERYTHROCYTE COUNT [1]: 5.51 x10E6/uL | HEMATOCRIT [1]: 35.45% | HEMOGLOBIN [1]: 13.82 G/DL | LEUKOCYTE COUNT [1]: 13.57 x10E3/uL | LYMPHOCYTE [1]: 89.83% | MEAN CORPUSCULAR HEMOGLOBIN [1]: 25.1 pg | MEAN CORPUSCULAR HEMOGLOBIN CONCENTRATION [1]: 38.98 G/DL | MEAN CORPUSCULAR VOLUME [1]: 64.42 fL | MONOCYTE [1]: 1.33% | NEUTROPHIL [1]: 8.83% | NUCLEATED RED BLOOD CELLS [1]: 0 /100WBC | PLATELET COUNT [1]: 1118.17 x10E3/uL | ALANINE AMINOTRANSFERASE [1]: 55 u/L | ALBUMIN [1]: 4.15 G/DL | ALKALINE PHOSPHATASE [1]: 449.5 u/L | ASPARTATE AMINOTRANSFERASE [1]: 112.83 u/L | BLOOD UREA NITROGEN [1]: 17.33 mg/dL | CARBON DIOXIDE [1]: 29.5 mmol/L | CHLORIDE [1]: 101 MEQ/L | CHOLESTEROL [1]: 70 mg/dL | CREATINE PHOSPHOKINASE [1]: 1325.83 u/L | CREATININE [1]: 0.18 mg/dL | GLUCOSE [1]: 171.5 mg/dL | LACTATE DEHYDROGENASE [1]: 386 u/L | LIPASE [1]: 10 u/L | PHOSPHORUS [1]: 11.57 mg/dL | POTASSIUM [1]: 6.21 MEQ/L | SODIUM [1]: 141.65 MEQ/L | TOTAL BILIRUBIN [1]: 0.15 mg/dL | TOTAL PROTEIN [1]: 5.75 G/DL | URIC ACID [1]: 1.28 mg/dL | ABSOLUTE BASOPHIL [2]: 0 CELLS/uL | ABSOLUTE EOSINOPHIL [2]: 138.17 CELLS/uL | ABSOLUTE LYMPHOCYTE [2]: 13283.17 CELLS/uL | ABSOLUTE MONOCYTE [2]: 303.83 CELLS/uL | ABSOLUTE SEGMENTED NEUTROPHIL [2]: 1308.17 CELLS/uL | BASOPHIL [2]: 0% | EOSINOPHIL [2]: 1% | ERYTHROCYTE COUNT [2]: 5.32 x10E6/uL | HEMATOCRIT [2]: 33.8% | HEMOGLOBIN [2]: 13.63 G/DL | LEUKOCYTE COUNT [2]: 15.03 x10E3/uL | LYMPHOCYTE [2]: 88.33% | MEAN CORPUSCULAR HEMOGLOBIN [2]: 25.68 pg | MEAN CORPUSCULAR HEMOGLOBIN CONCENTRATION [2]: 40.35 G/DL | MEAN CORPUSCULAR VOLUME [2]: 63.67 fL | MONOCYTE [2]: 1.83% | NEUTROPHIL [2]: 8.83% | NUCLEATED RED BLOOD CELLS [2]: 0 /100WBC | PLATELET COUNT [2]: 1097.5 x10E3/uL | ALANINE AMINOTRANSFERASE [2]: 54.5 u/L | ALBUMIN [2]: 4.27 G/DL | ALKALINE PHOSPHATASE [2]: 337 u/L | ASPARTATE AMINOTRANSFERASE [2]: 94.67 u/L | BLOOD UREA NITROGEN [2]: 17 mg/dL | CARBON DIOXIDE [2]: 28.33 mmol/L | CHLORIDE [2]: 101.5 MEQ/L | CHOLESTEROL [2]: 71.33 mg/dL | CREATINE PHOSPHOKINASE [2]: 628.17 u/L | CREATININE [2]: 0.19 mg/dL | GLUCOSE [2]: 177.83 mg/dL | LACTATE DEHYDROGENASE [2]: 500.5 u/L | LIPASE [2]: 9.5 u/L | PHOSPHORUS [2]: 12.3 mg/dL | POTASSIUM [2]: 5.63 MEQ/L | SODIUM [2]: 143.03 MEQ/L | TOTAL BILIRUBIN [2]: 0.2 mg/dL | TOTAL PROTEIN [2]: 6.02 G/DL | URIC ACID [2]: 1.5 mg/dL | ABSOLUTE BASOPHIL [3]: 0 CELLS/uL | ABSOLUTE EOSINOPHIL [3]: 76.67 CELLS/uL | ABSOLUTE LYMPHOCYTE [3]: 12148 CELLS/uL | ABSOLUTE MONOCYTE [3]: 38.33 CELLS/uL | ABSOLUTE SEGMENTED NEUTROPHIL [3]: 870.33 CELLS/uL | BASOPHIL [3]: 0% | EOSINOPHIL [3]: 0.67% | ERYTHROCYTE COUNT [3]: 5.1 x10E6/uL | HEMATOCRIT [3]: 32.07% | HEMOGLOBIN [3]: 13.3 G/DL | LEUKOCYTE COUNT [3]: 13.13 x10E3/uL | LYMPHOCYTE [3]: 92% | MEAN CORPUSCULAR HEMOGLOBIN [3]: 26.1 pg | MEAN CORPUSCULAR HEMOGLOBIN CONCENTRATION [3]: 41.47 G/DL | MEAN CORPUSCULAR VOLUME [3]: 62.87 fL | MONOCYTE [3]: 0.33% | NEUTROPHIL [3]: 7% | NUCLEATED RED BLOOD CELLS [3]: 0 /100WBC | PLATELET COUNT [3]: 1283 x10E3/uL | ALANINE AMINOTRANSFERASE [3]: 58 u/L | ALBUMIN [3]: 4.13 G/DL | ALKALINE PHOSPHATASE [3]: 363.33 u/L | ASPARTATE AMINOTRANSFERASE [3]: 110.33 u/L | BLOOD UREA NITROGEN [3]: 16.33 mg/dL | CARBON DIOXIDE [3]: 26.33 mmol/L | CHLORIDE [3]: 102.67 MEQ/L | CHOLESTEROL [3]: 70.67 mg/dL | CREATINE PHOSPHOKINASE [3]: 1302.67 u/L | CREATININE [3]: 0.14 mg/dL | GLUCOSE [3]: 164 mg/dL | LACTATE DEHYDROGENASE [3]: 334.67 u/L | LIPASE [3]: 9.67 u/L | PHOSPHORUS [3]: 13.07 mg/dL | POTASSIUM [3]: 5.93 MEQ/L | SODIUM [3]: 144.23 MEQ/L | TOTAL BILIRUBIN [3]: 0.1 mg/dL | TOTAL PROTEIN [3]: 5.53 G/DL | URIC ACID [3]: 1.57 mg/dL
